From ChEMBL document CHEMBL3044893, “Synthesis and structureactivity relationships of aliphatic isothiocyanate analogs as antibiotic agents” (Med Chem Res, 2013)
≈ marks a conversion by molar mass, not a printed value.

Tests used:
[1] = 1-octanol-water partition coefficient, log P of the compound by shake flask method; assay type: physicochemical
[2] = tested on: Pectobacterium carotovorum; test: Growth inhibition of Pectobacterium carotovorum at 10 ug/ml after 12 hr by turbidometric analysis; assay type: functional; conditions: read-out: GI
Rhizoctonia solani [3] = test: Growth inhibition of Rhizoctonia solani at 500 ug/ml after 24 to 28 […] by growth rate method; assay type: functional; conditions: read-out: GI
[4] = tested on: Pectobacterium carotovorum; test: Growth inhibition of Pectobacterium carotovorum at 20 ug/ml after 12 hr by turbidometric analysis; assay type: functional; conditions: read-out: GI
[5] = tested on: Pectobacterium carotovorum; test: Antibacterial activity against Pectobacterium carotovorum after 12 hr by turbidometric analysis; assay type: functional, organism-based
Rhizoctonia solani [6] = test: Growth inhibition of Rhizoctonia solani at 300 ug/ml after 24 to 28 […] by growth rate method; assay type: functional; conditions: read-out: GI
[7] = tested on: Pectobacterium carotovorum; test: Growth inhibition of Pectobacterium carotovorum at 5 ug/ml after 12 hr by turbidometric analysis; assay type: functional; conditions: read-out: GI
Rhizoctonia solani [8] = test: Growth inhibition of Rhizoctonia solani at 50 ug/ml after 24 to 28 […] by growth rate method; assay type: functional; conditions: read-out: GI
Rhizoctonia solani [9] = test: Growth inhibition of Rhizoctonia solani at 10 ug/ml after 24 to 28 […] by growth rate method; assay type: functional; conditions: read-out: GI
Rhizoctonia solani [10] = test: Growth inhibition of Rhizoctonia solani at 100 ug/ml after 24 to 28 […] by growth rate method; assay type: functional; conditions: read-out: GI
[11] = tested on: Pectobacterium carotovorum; test: Growth inhibition of Pectobacterium carotovorum at 50 ug/ml after 12 hr by turbidometric analysis; assay type: functional; conditions: read-out: GI
Rhizoctonia solani [12] = test: Antifungal activity against Rhizoctonia solani after 24 to 28 […] by growth rate method; assay type: functional, organism-based
[13] = tested on: Pectobacterium carotovorum; test: Growth inhibition of Pectobacterium carotovorum at 30 ug/ml after 12 hr by turbidometric analysis; assay type: functional; conditions: read-out: GI
[14] = tested on: Pectobacterium carotovorum; test: Growth inhibition of Pectobacterium carotovorum at 1 ug/ml after 12 hr by turbidometric analysis; assay type: functional; conditions: read-out: GI
[15] = tested on: Pectobacterium carotovorum; test: Growth inhibition of Pectobacterium carotovorum at 0.01 ug/ml after 12 hr by turbidometric analysis; assay type: functional; conditions: read-out: GI
[16] = tested on: Pectobacterium carotovorum; test: Growth inhibition of Pectobacterium carotovorum at 0.5 ug/ml after 12 hr by turbidometric analysis; assay type: functional; conditions: read-out: GI
[17] = tested on: Pectobacterium carotovorum; test: Growth inhibition of Pectobacterium carotovorum at 0.2 ug/ml after 12 hr by turbidometric analysis; assay type: functional; conditions: read-out: GI
[18] = tested on: Pectobacterium carotovorum; test: Growth inhibition of Pectobacterium carotovorum at 2 ug/ml after 12 hr by turbidometric analysis; assay type: functional; conditions: read-out: GI
[19] = tested on: Pectobacterium carotovorum; test: Growth inhibition of Pectobacterium carotovorum at 0.02 ug/ml after 12 hr by turbidometric analysis; assay type: functional; conditions: read-out: GI
[20] = tested on: Pectobacterium carotovorum; test: Growth inhibition of Pectobacterium carotovorum at 0.05 ug/ml after 12 hr by turbidometric analysis; assay type: functional; conditions: read-out: GI
Rhizoctonia solani [21] = test: Growth inhibition of Rhizoctonia solani at 5 ug/ml after 24 to 28 […] by growth rate method; assay type: functional; conditions: read-out: GI
[22] = tested on: Pectobacterium carotovorum; test: Growth inhibition of Pectobacterium carotovorum at 70 ug/ml after 12 hr by turbidometric analysis; assay type: functional; conditions: read-out: GI
Rhizoctonia solani [23] = test: Growth inhibition of Rhizoctonia solani at 70 ug/ml after 24 to 28 […] by growth rate method; assay type: functional; conditions: read-out: GI
Rhizoctonia solani [24] = test: Growth inhibition of Rhizoctonia solani at 15 ug/ml after 24 to 28 […] by growth rate method; assay type: functional; conditions: read-out: GI
[25] = tested on: Pectobacterium carotovorum; test: Growth inhibition of Pectobacterium carotovorum at 100 ug/ml after 12 hr by turbidometric analysis; assay type: functional; conditions: read-out: GI
[26] = tested on: Pectobacterium carotovorum; test: Growth inhibition of Pectobacterium carotovorum at 80 ug/ml after 12 hr by turbidometric analysis; assay type: functional; conditions: read-out: GI
Rhizoctonia solani [27] = test: Growth inhibition of Rhizoctonia solani at 25 ug/ml after 24 to 28 […] by growth rate method; assay type: functional; conditions: read-out: GI

CCCCCCCN=C=S [1-ISOTHIOCYANATOHEPTANE]
logP [1]: 4.19
inhibition of growth at 10 µg/mL [2]: 68%
inhibition of growth at 500 µg/mL (Rhizoctonia solani [3]): 89.1%
inhibition of growth at 20 µg/mL [4]: 84.1%
EC50 [5]: 7.51 µg/mL (≈ 47.7 µM)
inhibition of growth at 300 µg/mL (Rhizoctonia solani [6]): 75.1%
inhibition of growth at 5 µg/mL [7]: 28.8%
inhibition of growth at 50 µg/mL (Rhizoctonia solani [8]): 46.6%
inhibition of growth at 10 µg/mL (Rhizoctonia solani [9]): 21.6%
inhibition of growth at 100 µg/mL (Rhizoctonia solani [10]): 62%
inhibition of growth at 50 µg/mL [11]: 97%
EC50 (Rhizoctonia solani [12]): 54.5 µg/mL (≈ 346 µM)
inhibition of growth at 30 µg/mL [13]: 94.4%

CCCCCCN=C=S [1-ISOTHIOCYANATOHEXANE]
logP [1]: 3.68

CCCCCCCCN=C=S [1-ISOTHIOCYANATOOCTANE]
logP [1]: 4.7
inhibition of growth at 10 µg/mL [2]: 83.1%
inhibition of growth at 500 µg/mL (Rhizoctonia solani [3]): 84.2%
inhibition of growth at 1 µg/mL [14]: 47.8%
EC50 [5]: 1.17 µg/mL (≈ 6.83 µM)
inhibition of growth at 0.01 µg/mL [15]: 6.4%
inhibition of growth at 300 µg/mL (Rhizoctonia solani [6]): 82.2%
inhibition of growth at 0.5 µg/mL [16]: 24.7%
inhibition of growth at 5 µg/mL [7]: 70.6%
inhibition of growth at 50 µg/mL (Rhizoctonia solani [8]): 66.1%
inhibition of growth at 10 µg/mL (Rhizoctonia solani [9]): 21.8%
inhibition of growth at 100 µg/mL (Rhizoctonia solani [10]): 74.8%
EC50 (Rhizoctonia solani [12]): 34.7 µg/mL (≈ 203 µM)

CCCCCN=C=S [1-ISOTHIOCYANATOPENTANE]
logP [1]: 3.17
inhibition of growth at 500 µg/mL (Rhizoctonia solani [3]): 87.4%
inhibition of growth at 0.2 µg/mL [17]: 22.3%
inhibition of growth at 2 µg/mL [18]: 36%
EC50 [5]: 2.03 µg/mL (≈ 15.7 µM)
inhibition of growth at 300 µg/mL (Rhizoctonia solani [6]): 69%
inhibition of growth at 0.5 µg/mL [16]: 26.2%
inhibition of growth at 5 µg/mL [7]: 72.3%
inhibition of growth at 50 µg/mL (Rhizoctonia solani [8]): 34.9%
inhibition of growth at 0.02 µg/mL [19]: 2.04%
inhibition of growth at 10 µg/mL (Rhizoctonia solani [9]): 16%
inhibition of growth at 100 µg/mL (Rhizoctonia solani [10]): 44.6%
EC50 (Rhizoctonia solani [12]): 90 µg/mL (≈ 696 µM)

CCCCN=C=S [BUTYL ISOTHIOCYANATE]
logP [1]: 2.66
inhibition of growth at 10 µg/mL [2]: 43.9%
inhibition of growth at 20 µg/mL [4]: 84.4%
inhibition of growth at 0.2 µg/mL [17]: 10.7%
inhibition of growth at 0.05 µg/mL [20]: 6.38%
EC50 [5]: 26.1 µg/mL (≈ 227 µM)
inhibition of growth at 5 µg/mL (Rhizoctonia solani [21]): 3.72%
inhibition of growth at 300 µg/mL (Rhizoctonia solani [6]): 91.6%
inhibition of growth at 5 µg/mL [7]: 31.7%
inhibition of growth at 50 µg/mL (Rhizoctonia solani [8]): 57.7%
inhibition of growth at 10 µg/mL (Rhizoctonia solani [9]): 15.5%
inhibition of growth at 100 µg/mL (Rhizoctonia solani [10]): 68.2%
EC50 (Rhizoctonia solani [12]): 42.8 µg/mL (≈ 372 µM)

CCN=C=S [ETHYL ISOTHIOCYANATE]
logP [1]: 1.64
inhibition of growth at 10 µg/mL [2]: 6.74%
inhibition of growth at 20 µg/mL [4]: 11.7%
EC50 [5]: 41.6 µg/mL (≈ 478 µM)
inhibition of growth at 5 µg/mL (Rhizoctonia solani [21]): 58.8%
inhibition of growth at 50 µg/mL (Rhizoctonia solani [8]): 67.3%
inhibition of growth at 10 µg/mL (Rhizoctonia solani [9]): 61.1%
inhibition of growth at 70 µg/mL [22]: 94.8%
inhibition of growth at 100 µg/mL (Rhizoctonia solani [10]): 91.8%
inhibition of growth at 50 µg/mL [11]: 64.6%
EC50 (Rhizoctonia solani [12]): 3.52 µg/mL (≈ 40.4 µM)
inhibition of growth at 70 µg/mL (Rhizoctonia solani [23]): 73.9%
inhibition of growth at 30 µg/mL [13]: 48.5%

CN=C=S [METHYLISOTHIOCYANATE]
logP [1]: 1.13
inhibition of growth at 10 µg/mL [2]: 10.9%
inhibition of growth at 20 µg/mL [4]: 29.9%
inhibition of growth at 15 µg/mL (Rhizoctonia solani [24]): 49.7%
EC50 [5]: 38.2 µg/mL (≈ 523 µM)
inhibition of growth at 100 µg/mL [25]: 81.3%
inhibition of growth at 50 µg/mL (Rhizoctonia solani [8]): 77.5%
inhibition of growth at 10 µg/mL (Rhizoctonia solani [9]): 41.5%
inhibition of growth at 100 µg/mL (Rhizoctonia solani [10]): 84.6%
inhibition of growth at 80 µg/mL [26]: 71.5%
inhibition of growth at 50 µg/mL [11]: 61.1%
EC50 (Rhizoctonia solani [12]): 12.3 µg/mL (≈ 169 µM)
inhibition of growth at 25 µg/mL (Rhizoctonia solani [27]): 66.3%

CCCN=C=S [PROPYL ISOTHIOCYANATE]
logP [1]: 2.15
inhibition of growth at 10 µg/mL [2]: 29%
inhibition of growth at 20 µg/mL [4]: 47%
EC50 [5]: 20.6 µg/mL (≈ 204 µM)
inhibition of growth at 5 µg/mL (Rhizoctonia solani [21]): 21.4%
inhibition of growth at 300 µg/mL (Rhizoctonia solani [6]): 93.7%
inhibition of growth at 100 µg/mL [25]: 90.7%
inhibition of growth at 50 µg/mL (Rhizoctonia solani [8]): 68%
inhibition of growth at 10 µg/mL (Rhizoctonia solani [9]): 50.1%
inhibition of growth at 100 µg/mL (Rhizoctonia solani [10]): 84.2%
inhibition of growth at 80 µg/mL [26]: 86%
inhibition of growth at 50 µg/mL [11]: 76.3%
EC50 (Rhizoctonia solani [12]): 12 µg/mL (≈ 118 µM)
